In US20170209579A1, “NON-INVASIVE RADIOFREQUENCY FIELD TREATMENT FOR CANCER THERAPY” (Baylor College of Medicine, priority 2014, published 2017):

Key:
shMre11 Hep3B cell line = assay: Clonogenic assay, Mre11 knockdown (shMre11) Hep3B cell line; type: cell-based, human
Excerpt: For generating an Mre11-knockdown cell line, GPIZ lentiviral shRNA (Open biosystems, Lafayette, Colo.) was used according to the supplied protocol. In order to generate lentivirus, Hep3B cells were transfected in separate experiments with three random clones from a,shRNA library against Mre11 or a control shRNA together with a packaging plasmid (Trans-lentiviral packaging system, Open biosystems, Lafayette, Colo.) using lipofectamine 2000 (Invitrogen, Life technologies, Grand Island, N.Y.). Approximately 72 hours later, cells were observed under a microscope to express GFP, which is a marker of expression of shRNA against Mre11. Relative mre11 knockdown was confirmed by western blot analysis.
Clonogenic assay estimates single-cell reproductive viability by measuring the ability of a single cell to form a colony of 50 cells or more. Clonogenic assay in this study was performed as described previously (Franken et al., 2006). Briefly, cancer cells from an exponentially growing, sub-confluent culture were trypsinized and harvested. Approximately 200 cells were counted and plated in each well of a 6-well plate. Approximately 12 hours later, the cells were adherent and treatment conditions were introduced as described herein. […] The number of colonies in each well was counted using a colony counting grid. […]

Mre11 = assay: Colocalization of Mre11 with γ-H2AX foci at gemcitabine-stalled replication forks; type: cell-based, human; settings: Hep3B
Excerpt: FIGS. 15A-15D provide inhibition of Mre11 and Rad51 recruitment at gemcitabine-stalled replication forks by hyperthermia. (15A) Hep3B cells were exposed to hyperthermia and/or gemcitabine. (15B) and (15C) Mre11 and Rad51 were recruited at gemcitabine-stalled replication forks. […] Scale bar=10 μm. (15D) Quantification of data from colocalization experiments. Data are mean Pearson correlation (a.u.) and error bars represent the SD from three independent experiments with 10 replicates each (*P<0.05, **P<0.01). Gem=Gemcitabine; HT=Hyperthermia; N/A=not applicable, i.e., in hyperthermia treated cells BrdU staining is not detected as distinct foci and therefore correlation could not be quantified; ns=not significant, by the Student unpaired two-sided t test in comparison with gemcitabine alone group. Also, see FIGS. 22-24. […]
For immunocytochemistry assay, an indirect immunofluorescence approach was used. […] Cells from an exponentially growing culture were counted and approximately 50,000 cells were seeded in each well of a 12-well plate. […]
(§1) The slides were sealed with a conventional nail polish hardener and stored at 4° C. until imaging. […] Exposure settings were set to maximize dynamic range initially and then kept constant across multiple samples to allow quantitative comparisons. […]

[1] = tested on: subcutaneous pancreatic tumors; assay: Tumor size in mice bearing subcutaneous pancreatic tumors, RF + Gemcitabine; type: in vivo, mouse; settings: Gemcitabine 70 mg/Kg intravenously once per week; higher power RF system (0-1200 W); n=5
Procedure: (13A) Mice bearing subcutaneous pancreatic tumors were exposed to either RF, Gemcitabine, or RF+Gemcitabine once per week until the control group tumor size became a burden (n=5 in each group). The RF system used can be seen in (13B) and is a higher power version (0-1200 W) of the portable RF system. RF conditions were similar to that shown in (13B). Gemcitabine was given intravenously at a dosage of 70 mg/Kg. […] (13A) Mice bearing subcutaneous pancreatic tumors were exposed to non-invasive RF, Gemcitabine, or non-invasive RF+Gemcitabine once per week until the control group tumor size became a burden (n=5 in each group). The non-invasive RF system used can be seen in (13B) and is a higher power version (0-1200 W) of the portable RF system. non-invasive RF conditions were similar to that shown in FIG. 13B. Gemcitabine was given intravenously at a dosage of 70 mg/Kg.

[2] = tested on: γ-H2AX foci in Hep3B cells; assay: γ-H2AX foci in Hep3B cells (immunocytochemistry, confocal); type: cell-based, human
Procedure: Approximately 50,000 cells were seeded in each well of a 12-well plate and grown on circular #1.5 cover slips (Electron Microscopy Sciences, Hatfield, Pa.). After 24 hours, cells were exposed to various treatment conditions as described herein. At the end of treatment, cells were fixed, permeabilized, blocked, labeled with primary antibody, and then with secondary antibody in consecutive steps. For confocal imaging, Fluoview—FV1000 Olympus Confocal Microscope (Center Valley, Pa.) was used.
For immunocytochemistry assay, an indirect immunofluorescence approach was used. Circular #1.5 cover slips (Electron microscopy sciences, Hatfield, Pa.) were placed in 12-well plates and sterilized using a 20-minute UV exposure. Cells from an exponentially growing culture were counted and approximately 50,000 cells were seeded in each well of a 12-well plate. Adherent sub-confluent monolayers were observed growing on the cover slip 24 hours later. At this point, cells were exposed to various treatment conditions as described herein. At the end of treatment, immunolabeling of proteins being studied was performed. Cells were fixed, permeablized, blocked, labeled with primary antibody and then with secondary antibody in consecutive steps. Between each step, cells were washed with PBS three times for 5 minutes each time on a leveled shaker at 50 RPM. Cells were fixed with 1% paraformaldehyde in PBS (w/v) for 30 minutes. Permeablization was performed using 0.3% (v/v) Triton-100 and 0.125% (w/v) CHAPS (3-[(3-Cholamidopropyl) dimethylammonio]-1-propanesulfonate) dissolved in PBS for 15 minutes. […] Primary and secondary antibodies were diluted in the blocking buffer. Incubation with primary antibody was performed over night at 4° C. Secondary antibody incubations were performed for 2 hours at room temperature. […]
as §1

`Nc1ccn([C@@H]2O[C@H](CO)[C@@H](O)C2(F)F)c(=O)n1` [gemcitabine, 2′,2′-difluoro 2′-deoxycytidine] was tested, and the “sensitivity to gemcitabine, shMre11 versus shControl cell line” value (shMre11 Hep3B cell line; clonogenic survival) was “more sensitive to gemcitabine”, the “thermal enhancement of gemcitabine toxicity” value (shMre11 Hep3B cell line; shControl versus shMre11 cells) was “noted for shControl but not shMre11 cells” and the “mean Pearson correlation, Mre11 with γ-H2AX foci” value (Mre11; gemcitabine alone (10 μg/ml)) was 0.37. For the same molecule, the “mean Pearson correlation, Mre11 with γ-H2AX foci” value (Mre11; hyperthermia 42.5° C. 75 minutes then gemcitabine 10 μg/ml) was 0.23, the “tumor size, Gemcitabine+RF group compared to other groups” value [1] was “clear reduction in tumor size” and the “persistence of γ-H2AX positive cells, gemcitabine and hyperthermia versus either alone” value ([2]; gemcitabine 100 nM 24 hours, last two hours 42.5° C.) was “persisted for a longer duration”. For the same molecule, the “relative mean (±SD) γ-H2AX pixels per cell” value ([2]; gemcitabine alone) was 1.0±0.26 and the “relative mean (±SD) γ-H2AX pixels per cell” value ([2]; hyperthermia immediately followed by gemcitabine) was 1.0±0.20.
